Data taken from ChEMBL document CHEMBL3875186, “Design, synthesis, and characterization of rhein analogs as novel inhibitors of scavenger receptor A” (Bioorg Med Chem Lett, 2017).
The source made the active and inactive calls. No cut-off for these calls is given here.

Tests used:
[1] = target: T1, Macrophage scavenger receptor types I and II (Mus musculus) (UniProt P30204); assay: (§1) Antagonist activity at SRA in RM1-OVA tumor bearing wild type C57BL/6 mouse derived CD11bpositiveLy6ChighLy6Gnegative myeloid-derived suppressive cells co-cultured with splenocytes assessed as reduction in protein-mediated inhibition of anti CD3/CD28 antibody-induced T-cell activation by measuring IL-2 secretion pretreated for 2 hrs followed by splenocytes addition measured after 56 hrs by ELISA
T1 sequence (whole entry): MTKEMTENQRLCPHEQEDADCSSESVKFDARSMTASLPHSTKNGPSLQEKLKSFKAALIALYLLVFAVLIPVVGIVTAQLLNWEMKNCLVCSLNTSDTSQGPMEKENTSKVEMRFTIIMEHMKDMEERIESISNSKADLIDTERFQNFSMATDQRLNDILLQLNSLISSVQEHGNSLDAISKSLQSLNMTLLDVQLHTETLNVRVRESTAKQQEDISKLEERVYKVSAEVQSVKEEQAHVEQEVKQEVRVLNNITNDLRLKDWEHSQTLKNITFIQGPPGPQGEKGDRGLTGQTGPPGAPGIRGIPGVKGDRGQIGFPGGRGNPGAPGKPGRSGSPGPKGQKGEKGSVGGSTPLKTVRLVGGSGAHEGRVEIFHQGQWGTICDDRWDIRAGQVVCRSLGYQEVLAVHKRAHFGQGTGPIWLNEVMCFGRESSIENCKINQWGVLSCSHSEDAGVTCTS

[2] = target: T1, Macrophage scavenger receptor types I and II (Mus musculus); assay: as §1, with “proliferation at 10 to 20 uM preincubated” for “activation by measuring IL-2 secretion pretreated”, “72” for “56”, “[3H]-thymidine incorporation assay” for “ELISA”
[3] = target: T1, Macrophage scavenger receptor types I and II (Mus musculus); assay: Antagonist activity at mouse recombinant SRA extracellular domain expressed in baculovirus infected Sf21 insect cells assessed as inhibition of protein-induced reduction of IL2 gene promoter activation in anti CD3/CD28 antibody activated wild type C57BL/6 mouse B3Z T-cells at 50 uM after 5 hrs by beta-galactosidase reporter gene assay
[4] = target: T1, Macrophage scavenger receptor types I and II (Mus musculus); assay: as §1, with “secretion at 10 to 20 uM” for “secretion”

inhibition [1] | inhibition [2] | inhibition [3] | inhibition [4] | Structure (SMILES)
Dose-dependent effect | Active | Active |  | O=C1c2cccc(O)c2C(=O)c2c(O)cccc21
 | Active |  |  | O=C(O)c1cc(O)c2c(c1)C(=O)c1cccc(O)c1C2=O
 | Active | Active | Active | O=C(O)c1ccc2c(c1)C(=O)c1cccc(O)c1C2=O
